One assay addresses T1, BRD4 (BD1) (Homo sapiens, UniProt O60885).
T1 construct: with relatively long constructs also being possible, preferably amino acids 44-168; made in house; host or cells: E. coli
Briefly: Binding assay BRD4/acetylated peptide H4 (TR-FRET protein-protein interaction assay). In a few lines: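 Displacement of biotin-Ac-H4 peptide from His6-tagged BRD4(BD1), final usually 10 nM, read as Eu-streptavidin to anti-His-XL665 TR-FRET (665/620 nm). Compounds tested at 11 doses up to 20 μM in duplicate, pH 7.5 HEPES, 22 °C then 4 °C incubation; IC50 by 4-parameter regression.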
For orientation: In TR-FRET formats the signal depends on donor and acceptor labels being close together.

Another assay concerns MOLM-13 cells. Briefly: Cell proliferation assay (alamarBlue), MOLM-13. The format is cell-based. The note with it: Homo sapiens, 96 hours incubation, inhibition of cell proliferation. Put shortly:
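IC50 = concentration giving 50% growth inhibition relative to buffer-treated cells, after subtracting baseline fluorescence taken before dosing. Compound applied at 1E-5 to 1E-8 M for 96 h at 37 °C in RPMI1640 with 10% FCS; alamarBlue signal at 530/590 nm.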
(The colour change of resazurin is a common sign of viable cells or microbes.)

The subject of the next assay is B16F10 cells. In words: Cell proliferation assay (alamarBlue), B16F10. The format is cell-based. As to conditions: Mus musculus, B16-F10, 96 hours incubation, inhibition of cell proliferation. The method, then:
(§1) In accordance with the invention, the capability of the substances to inhibit cell proliferation was determined Cell viability was determined using the alamarBlue® reagent (Invitrogen) in a Victor X3 Multilabel Reader (Perkin Elmer). The excitation wavelength was 530 nm and the emission wavelenth […].
The B16F10 cells (ATCC, CRL-6475) were sown at a concentration of 300-500 cells/well in 100 μl growth medium (DMEM with phenol red, 10% FCS) on 96-well microtitre plates.
(§2) After an overnight incubation at 37° C., the fluorescence values (CI values) were determined. The plates were then treated with various substance dilutions (1E-5 M, 3E-6 M, 1E-6M, 3E-7 M, 1E-7 M, 3E-8 M, 1E-8 M) and incubated at 37° C. for 72 (MV4-11-, LOX-IMVI cells), 96 (MOLM-13-, B16F10-, MDA-MB-431-, Caov-3 cells), 120 (MOLP-8-, KMS-12-PE cells) or 168 (LAPC-4 cells) hours. The fluorescence values (CO values) were then determined. For the data analysis, the CI values were subtracted from the CO values and the results were compared between cells treated with different dilutions of the substance or with buffer solution only. These were used to calculate the IC 50 values (substance concentration required for 50% inhibition of cell proliferation).

Another assay deals with LAPC-4 cells. Briefly: Cell proliferation assay (alamarBlue), LAPC-4. The format is cell-based. As to conditions: Homo sapiens, LAPC4; inhibition of cell proliferation, LAPC-4 (prostate cancer), 1 nM methyltrienolone, 168 hours. On the procedure: as §1
The LAPC-4 cells (ATCC, PTA-1441TM) were sown at a concentration of 4000 cells/well in 100 μl growth medium (RPMI1640, 2 mM L-glutamine, 10% cFCS) on 96-well microtitre plates. A day later, the LAPC-4 cells were treated with 1 nM methyltrienolone and various substance dilutions.
as §2

In a further assay the test system is MV4-11 cells. Briefly: Cell proliferation assay (alamarBlue), MV4-11. As to conditions: Homo sapiens, 72 hours incubation, inhibition of cell proliferation. The format is cell-based. Put shortly: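 Cells seeded at 5000/well in RPMI1640 + 10% FCS, incubated overnight at 37° C, then treated with compound (1E-5 to 1E-8 M) for 72 h at 37° C. Viability by alamarBlue fluorescence (ex 530/em 590 nm); pre-treatment readings subtracted, IC50 derived versus buffer-treated cells.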

In another assay the test system is LOX-IMVI cells. In words: Cell proliferation assay (alamarBlue), LOX-IMVI. As to conditions: Homo sapiens, 72 hours incubation, inhibition of cell proliferation. The format is cell-based. In a few lines:
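alamarBlue fluorescence (530 nm excitation, 590 nm emission) measured before dosing and after 72 h at 37° C exposure to 1E-5–1E-8 M compound; 1000 cells/well plated in RPMI1640/10% FCS the night before. IC50 from baseline-corrected signal relative to buffer-treated wells.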

The test system of the next assay is MOLP-8 cells. Briefly: Cell proliferation assay (alamarBlue), MOLP-8. The class given is cell-based. The note with it: Homo sapiens, 120 hours incubation, inhibition of cell proliferation. In a few lines:
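MOLP-8 cells in RPMI1640 with 20% FCS, 4000 cells/well, treated overnight after seeding with substance at 1E-5 to 1E-8 M for 120 h at 37° C. Viability read by alamarBlue fluorescence (ex 530, em 590); pre-treatment values subtracted, compared with buffer-only cells to derive IC50.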

Another assay deals with KMS-12-PE cells. In words: Cell proliferation assay (alamarBlue), KMS-12-PE. The format is cell-based. As to conditions: Homo sapiens, 120 hours incubation, inhibition of cell proliferation. In a few lines: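 KMS-12-PE myeloma cells in RPMI1640 with 20% FCS were exposed to compound (1E-5 to 1E-8 M) for 120 h at 37° C. AlamarBlue fluorescence (ex 530, em 590 nm) read before and after treatment; the difference versus buffer-treated cells gave IC50.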

Another assay deals with Caov-3 cells. Briefly: Cell proliferation assay (alamarBlue), Caov-3. The note with it: Homo sapiens; inhibition of cell proliferation, Caov-3 (ovarian carcinoma), 96 hours. The class given is cell-based. Put shortly:
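Caov-3 (MEM Earle's, 10% FCS, 2000 cells/well) and MDA-MB-231 (DMEM/Ham's F12, 10% FCS, 4000 cells/well) were treated after overnight attachment with 1E-5 to 1E-8 M compound. Caov-3 exposure was 96 h. alamarBlue fluorescence (ex 530, em 590 nm) was read after background subtraction of day-0 values, and IC50 calculated versus buffer-treated cells.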

As usually defined, the pIC50 is −log10 of the IC50, conventionally taken in molar units.

pIC50: −log10 of the molar value.

For the compound `CNC(=O)N1N=C(c2ccc(N3CC(F)(F)C3)cc2)c2cc(OC)c(OC)cc2CC1C` (racemic) [Example 181, (±)-1-[4-(3,3-difluoroazetidin-1-yl)phenyl]-7,8-dimethoxy-N,4-dimethyl-4,5-dihydro-3H-2,3-benzodiazepine-3-carboxamide], the pIC50 on BRD4 (BD1) was 7.15; in the assay on MOLM-13 cells, 6.52; in the assay on B16F10 cells it was 6.77.

As for `CNC(=O)N1N=C(c2ccc(N3CC(O)C3)cc2)c2cc(OC)c(OC)cc2CC1C` (racemic) [Example 184, (±)-1-[4-(3-hydroxyazetidin-1-yl)phenyl]-7,8-dimethoxy-N,4-dimethyl-4,5-dihydro-3H-2,3-benzodiazepine-3-carboxamide], the results for the pIC50 at BRD4 (BD1), in the assay on MOLM-13 cells and in the assay with B16F10 cells were 7.22, 6.52 and 6.89, respectively.

With `CNC(=O)N1N=C(c2ccc(N3CC(C)(O)C3)cc2)c2cc(OC)c(OC)cc2CC1C` (racemic) [Example 185, (±)-1-[4-(3-hydroxy-3-methylazetidin-1-yl)phenyl]-7,8-dimethoxy-N,4-dimethyl-4,5-dihydro-3H-2,3-benzodiazepine-3-carboxamide], the pIC50 at BRD4 (BD1) was 7.15; in the assay on MOLM-13 cells, 6.55; with B16F10 cells, 6.80.

As for `CNC(=O)N1N=C(c2ccc(N3CCN(C(C)C)CC3)cc2)c2cc(OC)c(OC)cc2CC1C` (racemic) [Example 186, (±)-1-[4-(4-Isopropylpiperazin-1-yl)phenyl]-7,8-dimethoxy-N,4-dimethyl-4,5-dihydro-3H-2,3-benzodiazepine-3-carboxamide], the pIC50 was 6.89 at BRD4 (BD1), 6.48 in the assay with MOLM-13 cells and 6.62 in the assay with B16F10 cells.

Consider `CNC(=O)N1N=C(c2ccc(N3CC(OC)C3)cc2)c2cc(OC)c(OC)cc2CC1C` (racemic) [Example 187, (±)-7,8-dimethoxy-1-[4-(3-methoxyazetidin-1-yl)phenyl]-N,4-dimethyl-4,5-dihydro-3H-2,3-benzodiazepine-3-carboxamide], for which the figures for the pIC50 at BRD4 (BD1), with MOLM-13 cells and in the assay with B16F10 cells were 7.10, 6.48 and 6.77, respectively.

Regarding `CNC(=O)N1N=C(c2ccc(N3CCC(C)(O)CC3)cc2)c2cc(OC)c(OC)cc2CC1C` (racemic) [Example 188, (±)-1-[4-(4-hydroxy-4-methylpiperidin-1-yl)phenyl]-7,8-dimethoxy-N,4-dimethyl-4,5-dihydro-3H-2,3-benzodiazepine-3-carboxamide], the pIC50 was 7.30 on BRD4 (BD1), 6.70 in the assay on MOLM-13 cells and 7.00 with B16F10 cells.

As for `CNC(=O)C1CCN(c2ccc(C3=NN(C(=O)NC)C(C)Cc4cc(OC)c(OC)cc43)cc2)CC1` (racemic) [Example 189, (±)-7,8-dimethoxy-N,4-dimethyl-1-{4-[4-(methylcarbamoyl)piperidin-1-yl]phenyl}-4,5-dihydro-3H-2,3-benzodiazepine-3-carboxamide], the results for the pIC50 on BRD4 (BD1), with MOLM-13 cells and in the assay with B16F10 cells were 7.22, 6.36 and 6.68, respectively.

Consider `CNC(=O)N1N=C(c2ccc(N3CCN(C)CC3)cc2)c2cc(OC(F)(F)F)ccc2CC1C` (racemic) [Example 250, (±)-N,4-dimethyl-1-[4-(4-methyl-1-piperazinyl)phenyl]-8-(trifluoromethoxy)-4,5-dihydro-3H-2,3-benzodiazepine-3-carboxamide], for which the pIC50 is 7.40 at BRD4 (BD1), 6.85 in the assay on MOLM-13 cells and 7.00 in the assay on B16F10 cells.

On to `CNC(=O)N1N=C(c2ccc(-c3ccn[nH]3)cc2)c2cc(OC)ccc2C[C@@H]1C` [Example 23, (4S)-8-methoxy-N,4-dimethyl-1-[4-(1H-pyrazol-5-yl)phenyl]-4,5-dihydro-3H-2,3-benzodiazepine-3-carboxamide], for which the pIC50 on BRD4 (BD1) is 7.05; in the assay with MOLM-13 cells, 6.57; in the assay on LAPC-4 cells, 6.72.

Turning to `CNC(=O)N1N=C(c2ccc(N3CCNCC3)cc2)c2cc(OC)c(OC)cc2C[C@@H]1C` [Example 131.1, (4S)-7,8-dimethoxy-N,4-dimethyl-1-[4-(piperazin-1-yl)phenyl]-4,5-dihydro-3H-2,3-benzodiazepine-3-carboxamide], the pIC50 on BRD4 (BD1) was 7.15; in the assay on MOLM-13 cells, 6.96; in the assay with B16F10 cells it was 7.22.

Consider `CNC(=O)N1N=C(c2ccc(N3CCN(S(C)(=O)=O)CC3)cc2)c2cc(OC)c(OC)cc2C[C@@H]1C` [Example 135.1, (4S)-7,8-dimethoxy-N,4-dimethyl-1-{4-[4-(methylsulphonyl)piperazin-1-yl]phenyl}-4,5-dihydro-3H-2,3-benzodiazepine-3-carboxamide], for which the pIC50 at BRD4 (BD1) was 7.40; with MOLM-13 cells, 6.82; with B16F10 cells, 7.10.

As for `CNC(=O)N1N=C(c2ccc(-n3nc(-c4ccccc4)cc3C3CC3)cc2)c2cc(OC)c(OC)cc2C[C@@H]1C` [Example 148.1, (4S)-1-[4-(5-cyclopropyl-3-phenyl-1H-pyrazol-1-yl)phenyl]-7,8-dimethoxy-N,4-dimethyl-4,5-dihydro-3H-2,3-benzodiazepine-3-carboxamide], the pIC50 on BRD4 (BD1) is 7.52; with MOLM-13 cells it was 7.10; with MV4-11 cells it was 7.30; in the assay on LOX-IMVI cells, 7.05; with MOLP-8 cells, 7.30; in the assay on KMS-12-PE cells, 7.30. In addition, in the assay on Caov-3 cells, the pIC50 was 6.89.

For the compound `CNC(=O)N1N=C(c2ccc(-n3ccc(-c4ccc(F)cc4)n3)cc2)c2cc(OC)c(OC)cc2C[C@@H]1C` [Example 150.1, (4S)-1-{4-[3-(4-fluorophenyl)-1H-pyrazol-1-yl]phenyl}-7,8-dimethoxy-N,4-dimethyl-4,5-dihydro-3H-2,3-benzodiazepine-3-carboxamide], the pIC50 on BRD4 (BD1) is 6.96; in the assay on MOLM-13 cells it was 6.64; in the assay on MV4-11 cells, 6.89; in the assay on LOX-IMVI cells, 6.47; in the assay with MOLP-8 cells, 6.64; in the assay with KMS-12-PE cells, 6.74. Moreover, in the assay on Caov-3 cells, the pIC50 is 6.47.

Take `CNC(=O)C1CCN(c2ccc(C3=NN(C(=O)NC)[C@@H](C)Cc4cc(OC)c(OC)cc43)cc2)CC1` [Example 189.1, (4S)-7,8-dimethoxy-N,4-dimethyl-1-{4-[4-(methylcarbamoyl)piperidin-1-yl]phenyl}-4,5-dihydro-3H-2,3-benzodiazepine-3-carboxamide]: the pIC50 was 7.40 at BRD4 (BD1), 6.68 with MOLM-13 cells, 7.00 in the assay on B16F10 cells and 7.10 in the assay with MOLP-8 cells.

As for `CNC(=O)N1N=C(c2ccc(N3CCN(C)CC3)cc2)c2cc(OC(F)(F)F)ccc2C[C@@H]1C` [Example 250.2, (4S)-N,4-dimethyl-1-[4-(4-methyl-1-piperazinyl)phenyl]-8-(trifluoromethoxy)-4,5-dihydro-3H-2,3-benzodiazepine-3-carboxamide], the pIC50 on BRD4 (BD1) was 7.70; with MOLM-13 cells, 7.30; with B16F10 cells, 7.40.
